These results are taken from patent publication US6632832B1 (Dabur Research Foundation, priority 2002, dated 2003).

Test [1] relates to human pancreatic cancer cells (MiaPaCa2). Kind of test: Cytotoxicity abrogation assay with intracellular blocking of PKC by Bisindolylmaleimide. The class given is cell-based. The protocol: Briefly, 10000 human pancreatic cancer cells (MiaPaCa2) were seeded per well in a 96-well culture plate in DMEM containing 5% FCS. All experiments were carried out in triplicate at 37° C. in CO2 incubator. The plates were incubated overnight to allow complete reattachment of the cells. Subsequently, the medium was replaced with DMEM. The cells were incubated with varying concentrations of Bisindolylmaleimide, the specific inhibitor of PKC for a period of three hours. Bisindolylmaleimide was dissolved in 1% DMSO The control cells were treated with 1% DMSO. The cells were washed with PBS, and the medium was changed to fresh DMEM.

For another test, the system named is Protein Kinase C (PKC). Kind of test: PKC activity ELISA on lysates of treated MiaPaCa2 cells. As to conditions: 5-100 ug/ml for 15 minutes. The class given is cell-based, human. The protocol: Briefly 0.5×10^6 cells of human pancreatic cancer cells (MiaPaCa2) were plated per well in 6 well tissue culture plates in 2 ml of DMEM containing 10% Fetal calf serum. The cells were incubated overnight at 37° C. and 5% CO2. The medium was changed to DMEM without serum. […] The control cells were treated with 1% DMSO in DMEM. […] The cells were scraped with sterile cell scrapers, and spun at 1500 rpm for 5 minutes. The cell pellet was dissolved in 1 ml of ice cold sample preparation buffer (50 mM Tris-HCl, 50 mM 2-mercaptoethanol, 10 mM EGTA, 5 mM EDTA, 1 mM PMSF, 10 mM Benzamidine, pH 7.5). The cell pellets were sonicated four to five times each with time intervals of 5-10 seconds. The cells were centrifuged at 100,000×g for a period of 60 minutes at 4° C. The supernatant was aspirated from each set of experiments. The reaction mixture for quantitation of the PKC activity contained 25 mM Tris-HCl (pH7.0), 3 mM Mgc12, 0.1 mM ATP, 2 mM CaCl2, 50 ug/ml Phosphatidylserine, 0.5 mM EDTA, 1 mM EGTA, and 5 mM 2 mercaptoethanol. The lysates from the cells not treated with Carvedilol were the control experiments. The reaction mixture was preincubated for 5 minutes at 25° C. […] The optical density was read at 492 nm, and the PKC activity expressed as percent of that in control cells.
In general terms: ELISA stands for enzyme-linked immunosorbent assay.

Like-named read-outs stand apart in the source and are kept apart here.

For `COc1ccccc1OCCNCC(O)COc1cccc2[nH]c3ccccc3c12` (racemic) [Carvedilol, (±)-1-(carbazol-4-yloxy)-3-[(2-(o-methoxyphenoxy)ethyl]amino]-2-propanol], the cytotoxicity at 20 µg/mL worked out at 50% in test [1] (MIA PaCa-2, 48 h, read-out: % Cytotoxicity of Carvedilol (20 ug/ml), MiaPaCa2, 48 hours, Bisindolemaleimide Nil); 22% in test [1] (MIA PaCa-2, read-out: % Cytotoxicity of Carvedilol (20 ug/ml), MiaPaCa2, 48 hours, preincubated with Bisindolemaleimide 1.0 uM); 20% in test [1] (MIA PaCa-2, read-out: % Cytotoxicity of Carvedilol (20 ug/ml), MiaPaCa2, 48 hours, preincubated with Bisindolemaleimide 2.5 uM); 20% in test [1] (MIA PaCa-2, read-out: % Cytotoxicity of Carvedilol (20 ug/ml), MiaPaCa2, 48 hours, preincubated with Bisindolemaleimide 5.0 uM). Also, the “effect on PKC activity (FIG. 4)” value in the test on Protein Kinase C (PKC) is “inhibits the PKC activity in a dose dependent manner”.
